Assay results published in patent publication US10562897B2, “Substituted 3,4-dihydro-2H-pyrido[1,2-a]pyrazine-1,6-diones as gamma secretase modulators” (Janssen Pharmaceutica NV, priority 2014, dated 2020).
Read-outs that look alike come from different tables or passages of the source.

How the values were obtained:
Aβ38 = assay: In vivo efficacy: brain level of soluble Aβ38, non-transgenic rodents, single oral dose 30 mg/kg, 4 h, MSD electrochemiluminescence, untreated control = 100; parameters: species or system mouse; settings: for response vs control in vivo at 30 mg/kg / response vs control in vivo at 10 mg/kg: Mus musculus, read-out: Aβ38 (% vs Ctrl) _Mean; for response vs control in vivo at 10 mg/kg: 10 mpk po
From the text: To determine whether acute administration of an Aβ38 increasing agents would increase Aβ38 levels in vivo, non-transgenic rodents, e.g. mice or rats were used. Animals treated with the Aβ38 increasing agents were examined and compared to those untreated or treated with vehicle and brain levels of soluble Aβ42, Aβ40, Aβ38, and Aβ37 were quantitated by MSD electrochemiluminescence detection technology.
Treatment periods varied from hours (h) to days and were adjusted based on the results of the Aβ38 increase once a time course of onset of effect could be established.
(§1) A typical protocol for measuring Aβ38 increase in vivo is shown but it is only one of many variations that could be used to optimize the levels of detectable Aβ. For example, Aβ38 increasing agents were formulated in 20% of Captisol® (a sulfobutyl ether of β-cyclodextrin) in water or 20% hydroxypropyl β cyclodextrin. The Aβ38 increasing agents were administered as a single oral dose or by any acceptable route of administration to overnight fasted animals. After 4 h, the animals were sacrificed and Aβ38 levels were analysed.
(§2) Blood was collected by decapitation and exsanguinations in EDTA-treated collection tubes. Blood was centrifuged at 1900 g for 10 minutes (min) at 4° C. and the plasma recovered and flash frozen for later analysis. The brain was removed from the cranium and hindbrain. The cerebellum was removed and the left and right hemisphere were separated. The left hemisphere was stored at −18° C. for quantitative analysis of test compound levels. The right hemisphere was rinsed with phosphate-buffered saline (PBS) buffer and immediately frozen on dry ice and stored at −80° C. until homogenization for biochemical assays.
(§3) Mouse brains from non-transgenic animals were resuspended in 8 volumes of 0.4% DEA (diethylamine)/50 mM NaCl containing protease inhibitors (Roche-11873580001 or 04693159001) per gram of tissue, e.g. for 0.158 g brain, add 1.264 ml of 0.4% DEA. All samples were homogenized in the FastPrep-24 system (MP Biomedicals) using lysing matrix D (MPBio #6913-100) at 6 m/s for 20 seconds. Homogenates were centrifuged at 20800×g for 5 min and supernatants collected. Supernatants were centrifuged at 221.300×g for 50 min. The resulting high speed supernatants were then transferred to fresh eppendorf tubes. Nine parts of supernatant were neutralized with 1 part 0.5 M Tris-HCl pH 6.8 and used to quantify Aβ.
(§4) To quantify the amount of Aβ42, Aβ40, Aβ38, and Aβ37 in the soluble fraction of the brain homogenates, simultaneous specific detection of Aβ42, Aβ40, Aβ38, and Aβ37 was performed using MSD's electro-chemiluminescence multiplex detection technology. In this assay purified monoclonal antibodies specific for Abeta37 (JRD/Aβ37/3), Abeta38 (J&JPRD/Aβ38/5), Abeta40 (JRF/cAβ40/28), and Abeta42 (JRF/cAβ42/26) were coated on MSD 4-plex plates. Briefly, the standards (a dilution of synthetic Aβ42, Aβ40, Aβ38, and Aβ37) were prepared in 1.5 ml Eppendorf tube in Ultraculture, with final concentrations ranging from 10000 to 0.3 μg/m. The samples and standards were co-incubated with Sulfo-tag labelled JRF/rAß/2 antibody to the N-terminus of Aβ as detector antibody. 50 μl of conjugate/sample or conjugate/standards mixtures were then added to the antibody-coated plate. The plate was allowed to incubate overnight at 4° C. in order to allow formation of the antibody-amyloid complex. Following this incubation and subsequent wash steps the assay was finished by adding read buffer according to the manufacturer's instructions (Meso Scale Discovery, Gaitherburg, Md.).
(§5) The SULFO-TAG emits light upon electrochemical stimulation initiated at the electrode. MSD Sector instrument SI6000 was used for signal read-out.
In this model a Aß38 increase compared to untreated animals would be advantageous, in particular a Aß38 increase with at least 10%, more in particular a Aß38 increase with at least 20%. […]

Aβ40 = assay: In vivo efficacy: brain level of soluble Aβ40, non-transgenic rodents, single oral dose 30 mg/kg, 4 h, MSD electrochemiluminescence, untreated control = 100; parameters: species or system mouse; settings: for response vs control in vivo at 30 mg/kg / response vs control in vivo at 10 mg/kg: Mus musculus, read-out: Aβ40 (% vs Ctrl) _Mean; for response vs control in vivo at 10 mg/kg: 10 mpk po
From the text: (§6) To determine whether acute administration of an Aβ42 lowering agent would reduce Aβ42 levels in vivo, non-transgenic rodents, e.g. mice or rats were used. Animals treated with the Aβ42 lowering agent were examined and compared to those untreated or treated with vehicle and brain levels of soluble Aβ42, Aβ40, Aβ38, and Aβ37 were quantitated by Meso Scale Discovery's (MSD) electrochemiluminescence detection technology. Treatment periods varied from hours (h) to days and were adjusted based on the results of the Aβ42 lowering once a time course of onset of effect could be established.
as §1, with “measuring Aβ42 lowering” for “measuring Aβ38 increase”, “example, Aβ42 lowering compounds” for “example, Aβ38 increasing agents”, “The Aβ42 lowering” for “The Aβ38 increasing”, “and Aβ42” for “and Aβ38”
as §2, §3
as §4, with “pg/m.” for “μg/m.”
The SULFO-TAG emits light upon electrochemical stimulation initiated at the electrode. MSD Sector instrument SI6000 was used for signal read-out. […]

Aβ42 = assay: In vivo efficacy: brain level of soluble Aβ42, non-transgenic rodents, single oral dose 30 mg/kg, 4 h, MSD electrochemiluminescence, untreated control = 100; parameters: species or system mouse; settings: for response vs control in vivo at 30 mg/kg / response vs control in vivo at 10 mg/kg: Mus musculus, read-out: Aβ42 (% vs Ctrl) _Mean; for response vs control in vivo at 10 mg/kg: 10 mpk po
From the text: as §6
as §1, with “measuring Aβ42 lowering” for “measuring Aβ38 increase”, “example, Aβ42 lowering compounds” for “example, Aβ38 increasing agents”, “The Aβ42 lowering” for “The Aβ38 increasing”, “and Aβ42” for “and Aβ38”
as §2, §3
as §4, with “pg/m.” for “μg/m.”
as §5
In this model a Aß42 lowering compared to untreated animals would be advantageous, in particular a Aß42 lowering with at least 10%, more in particular a Aß42 lowering with at least 20%. […]

[1] = dose 30 mg/kg oral dosing, 30 mg/kg

`Cc1cn(-c2ccc3n(c2=O)CCN(C(C)c2coc4cc(F)c(Cl)cc24)C3=O)cn1` (single isomer, unassigned) [Compound 61] gave a melting point of 231 °C, a response vs control in vivo at 30 mg/kg (Aβ38; po, dose 30 mg/kg oral dosing) of 192% and a response vs control in vivo at 30 mg/kg (Aβ40; po, dose 30 mg/kg oral dosing) of 90%. It also gave a response vs control in vivo at 30 mg/kg (Aβ42; po, dose 30 mg/kg oral dosing) of 86%.
Work on `Cc1cn(-c2ccc3n(c2=O)CC(C)N(C(C)c2coc4cc(F)c(C(F)(F)F)cc24)C3=O)cn1` (single isomer, unassigned) [Compound 89] yielded a melting point of 230 °C, a response vs control in vivo at 10 mg/kg (Aβ38; po) of 132% and a response vs control in vivo at 10 mg/kg (Aβ40; po) of 67%. For the same compound, the response vs control in vivo at 10 mg/kg (Aβ42; po) was 58%.
Work on `Cc1cn(-c2ccc3n(c2=O)C[C@@H](C)N(Cc2cc4cc(Br)ccc4o2)C3=O)cn1` [Compound 13] yielded a melting point of 159 °C, a response vs control in vivo at 30 mg/kg (Aβ38; po, dose 30 mg/kg oral dosing) of 117% and a response vs control in vivo at 30 mg/kg (Aβ40; po, dose 30 mg/kg oral dosing) of 101%. It also gave a response vs control in vivo at 30 mg/kg (Aβ42; po, dose 30 mg/kg oral dosing) of 77%.
With `Cc1cn(-c2ccc3n(c2=O)CC(C)N(C(C)c2cc(OC4CC4)cc(C(F)(F)F)c2)C3=O)cn1` (stereo not drawn) [Compound 49] the “Aβ38 (% vs Ctrl) _Mean” value (Aβ38; [1]) was 123 % vs Ctrl, the “Aβ40 (% vs Ctrl) _Mean” value (Aβ40; [1]) was 101 % vs Ctrl and the “Aβ42 (% vs Ctrl) _Mean” value (Aβ42; [1]) was 85 % vs Ctrl.
In the case of `Cc1cn(-c2ccc3n(c2=O)C[C@@H](C)N(CC2(c4cc(OC5CC5)cc(C(F)(F)F)c4)CC2)C3=O)cn1` [Compound 53], the response vs control in vivo at 30 mg/kg (Aβ38; po, dose 30 mg/kg oral dosing) is reported as 124%, the response vs control in vivo at 30 mg/kg (Aβ40; po, dose 30 mg/kg oral dosing) is reported as 121% and the response vs control in vivo at 30 mg/kg (Aβ42; po, dose 30 mg/kg oral dosing) is reported as 120%.
With `Cc1cn(-c2ccc3n(c2=O)C[C@@H](C)N(Cc2coc4ccc(Cl)cc24)C3=O)cn1` [Compound 55] the response vs control in vivo at 30 mg/kg (Aβ38; po, dose 30 mg/kg oral dosing) was 142%, the response vs control in vivo at 30 mg/kg (Aβ40; po, dose 30 mg/kg oral dosing) was 113% and the response vs control in vivo at 30 mg/kg (Aβ42; po, dose 30 mg/kg oral dosing) was 93%.
`Cc1cn(-c2ccc3n(c2=O)C[C@@H](C)N(Cc2coc4c(F)cc(Cl)cc24)C3=O)cn1` [Compound 62] showed a response vs control in vivo at 30 mg/kg (Aβ38; po, dose 30 mg/kg oral dosing) of 113%, a response vs control in vivo at 30 mg/kg (Aβ40; po, dose 30 mg/kg oral dosing) of 87% and a response vs control in vivo at 30 mg/kg (Aβ42; po, dose 30 mg/kg oral dosing) of 82%.
Compound `Cc1cn(-c2ccc3n(c2=O)C[C@@H](C)N(Cc2coc4cc(F)c(Cl)cc24)C3=O)cn1` [Compound 63] has a response vs control in vivo at 30 mg/kg (Aβ38; sc, 30 mpk sc) of 135%, a response vs control in vivo at 30 mg/kg (Aβ40; sc, 30 mpk sc (footnote *)) of 62% and a response vs control in vivo at 30 mg/kg (Aβ42; sc, 30 mpk sc) of 58%.
Work on `Cc1cn(-c2ccc3n(c2=O)CCN(Cc2coc4ccc(C(F)(F)F)cc24)C3=O)cn1` [Compound 64] yielded a melting point of 211 °C, a response vs control in vivo at 30 mg/kg (Aβ38; sc, 30 mpk sc) of 155% and a response vs control in vivo at 30 mg/kg (Aβ40; sc, 30 mpk sc (footnote *)) of 132%. The response vs control in vivo at 30 mg/kg (Aβ42; sc, 30 mpk sc) was 108%.
In the case of `Cc1cn(-c2ccc3n(c2=O)C[C@@H](C)N(Cc2coc4cc(C(F)(F)F)ccc24)C3=O)cn1` [Compound 72], the melting point is reported as 215 °C, the response vs control in vivo at 30 mg/kg (Aβ38; po, dose 30 mg/kg oral dosing) is reported as 130% and the response vs control in vivo at 30 mg/kg (Aβ40; po, dose 30 mg/kg oral dosing) is reported as 88%. It also gave a response vs control in vivo at 30 mg/kg (Aβ42; po, dose 30 mg/kg oral dosing) of 64%.
With `Cc1cn(-c2ccc3n(c2=O)C[C@@H](C)N(Cc2coc4ccc(C(F)(F)F)cc24)C3=O)cn1` [Compound 73] the melting point was 187 °C, the response vs control in vivo at 30 mg/kg (Aβ38; sc, 30 mpk sc) was 110% and the response vs control in vivo at 30 mg/kg (Aβ40; sc, 30 mpk sc (footnote *)) was 114%. For the same compound, the response vs control in vivo at 30 mg/kg (Aβ42; sc, 30 mpk sc) was 97%.
For `Cc1cn(-c2ccc3n(c2=O)C[C@@H](C)N(Cc2coc4c(Cl)cc(Cl)cc24)C3=O)cn1` [Compound 74], the melting point was 202 °C, the response vs control in vivo at 10 mg/kg (Aβ38; po) was 144% and the response vs control in vivo at 10 mg/kg (Aβ40; po) was 100%. It also gave a response vs control in vivo at 10 mg/kg (Aβ42; po) of 83%.
Compound `Cc1cn(-c2ccc3n(c2=O)CC(C)N(C(C)c2coc4ccc(C(F)(F)F)cc24)C3=O)cn1` (stereo not drawn) [Compound 79] has a response vs control in vivo at 30 mg/kg (Aβ38; sc, 30 mpk sc) of 175%, a response vs control in vivo at 30 mg/kg (Aβ40; sc, 30 mpk sc (footnote *)) of 62% and a response vs control in vivo at 30 mg/kg (Aβ42; sc, 30 mpk sc) of 54%.
Work on `Cc1cn(-c2ccc3n(c2=O)C[C@@H](C)N(Cc2coc4ccc(OC(F)(F)F)cc24)C3=O)cn1` [Compound 83] yielded a response vs control in vivo at 30 mg/kg (Aβ38; sc, 30 mpk sc) of 166%, a response vs control in vivo at 30 mg/kg (Aβ40; sc, 30 mpk sc (footnote *)) of 41% and a response vs control in vivo at 30 mg/kg (Aβ42; sc, 30 mpk sc) of 40%.
Compound `Cc1cn(-c2ccc3n(c2=O)C[C@@H](C)N(Cc2coc4cc(F)c(C(F)(F)F)cc24)C3=O)cn1` [Compound 84] has a melting point of 222 °C, a response vs control in vivo at 30 mg/kg (Aβ38; sc, 30 mpk sc) of 237% and a response vs control in vivo at 30 mg/kg (Aβ40; sc, 30 mpk sc (footnote *)) of 21%. The response vs control in vivo at 30 mg/kg (Aβ42; sc, 30 mpk sc) was 25%.
In the case of `Cc1cn(-c2ccc3n(c2=O)C[C@@H](C)N(Cc2coc4cc(C(F)(F)F)c(F)cc24)C3=O)cn1` [Compound 85], the melting point is reported as 226 °C, the response vs control in vivo at 30 mg/kg (Aβ38; sc, 30 mpk sc) is reported as 194% and the response vs control in vivo at 30 mg/kg (Aβ40; sc, 30 mpk sc (footnote *)) is reported as 69%. For the same compound, the response vs control in vivo at 30 mg/kg (Aβ42; sc, 30 mpk sc) was 51%.
